Data as given in US20260374766A1, “METHODS FOR TREATING CANCER” (Antares Therapeutics, Inc., priority 2022, published 2026).
pIC50, pKd: −log10 of the molar value. Where two headings read alike, the source gives them in different places.

Experiments:
p53 Y220C = p53 Y220C (Homo sapiens, UniProt P04637, Y220C); assay: Luciferase Reporter Assay (Luc), p53 response element, NClH1299 cells with inducible p53 Y220C; format: cell-based; conditions: luciferase reporter, NClH1299 inducible p53 Y220C, 6 hour; for Emax: 10 uM tool compound as positive control; for AC50: read-out: Luc P53 Y220C AC50
Procedure, shortened: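 Luciferase activity is measured directly after One-Glo addition and a 5-minute room-temperature shake. Before that, cells plated at 5,000 per well receive doxycycline at 0.5 ug/mL for 24 hours, followed by compound for 6 hours.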

H1299 p53 R273H = assay: Cell Proliferation Assay (CellTiter-Glo, CTG), H1299 p53 R273H (NClH1299-inducible p53 R273H); format: cell-based; conditions: Homo sapiens, NCI-H1299, 120 h, CellTiter-Glo, H1299 p53 R273H, 5 days
Procedure, shortened: (§1)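 Cells seeded at 250-500 per well and exposed to compound for 5 days. Viability read by CellTiter-Glo luminescence after 10 min at room temperature; IC50 calculated. H1299 lines carry Tet-One inducible p53 mutant constructs introduced by lentiviral transduction.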

H1299 p53 Y220C = assay: Cell Proliferation Assay (CellTiter-Glo, CTG), H1299 p53 Y220C (NClH1299-inducible p53 Y220C); format: cell-based; conditions: Homo sapiens, NCI-H1299, 120 h, CellTiter-Glo, H1299 p53 Y220C, 5 days
Procedure, shortened: as §1

[1] = target: T1, p53 Y220C mutant protein (amino acid residues 94-293) (Homo sapiens, UniProt P04637, Y220C); assay: Thermal Shift Assay (TSA), dTM; format: binding; conditions: thermal shift; for ΔTm at 10 µM: 10 uM compound, read-out: TSA P53 Y220C dTM (10 uM); for ΔTm at 100 µM: 100 uM compound, read-out: TSA P53 Y220C dTM (100 uM)
T1 construct: p53 Y220C mutant protein (amino acid residues 94-293)
Procedure, shortened: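 First, the mutant DNA-binding domain (5 μM) was preincubated 3 hours at 20 °C with compound at 10 μM or 100 μM. Next, the sample was heated from 30 °C to 50 °C at 0.03 °C/second in the presence of Sypro Orange. Finally, TM was obtained from a two-state Boltzmann fit.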

[2] = target: T1, p53 Y220C mutant protein (amino acid residues 94-293); assay: Surface Plasmon Resonance (SPR) assay, Kd_kinetic; format: binding; conditions: read-out: SPR P53 Y220C KD kinetic
Procedure, shortened: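 Surface plasmon resonance is run at 16 or 20 °C in 50 mM Tris pH 7.5 containing 100 mM NaCl, 1 mM DTT, 0.01% Brij35, 0.05% Tween-20 and 1% DMSO. Association and dissociation data are fitted to a 1:1 model.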

NUGC3 p53 Y220C = assay: Cell Proliferation Assay (CellTiter-Glo, CTG), NUGC3 p53 Y220C; format: cell-based; conditions: Homo sapiens, NUGC-3, 120 h, CellTiter-Glo, NUGC3 p53 Y220C, 5 days
Procedure, shortened: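 Tet-One inducible p53 Y220C or R273H constructs were stably introduced into NCI-H1299 by lentiviral transduction; NUGC3 was used as is. Cells (250-500 per well) were exposed to compound for 5 days, then CellTiter-Glo was added for 10 min at room temperature and IC50 was calculated from luminescence.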

SMILES | Emax (p53 Y220C) | AC50 (p53 Y220C) | pIC50 (H1299 p53 R273H) | pIC50 (H1299 p53 Y220C) | ΔTm at 10 µM [1] | ΔTm at 100 µM [1] | pKd ([2]; SPR, kinetic KD, p53 Y220C) | pKd [2] | pIC50 (NUGC3 p53 Y220C)
CNC(=O)c1cnc(NCC#Cc2nc3c(N[C@@H]4CCN(C)C[C@@H]4F)cccn3c2SC(F)(F)F)n1C [Example 161] | < 70% | > 3 µM | ≤ 5.00 | 5.52 to 5.82 | 5 to 10 °C | ≥ 10 °C | 7.00 to 8.00 | – | 5.52 to 5.82
CNC(=O)c1cccc(NCC#Cc2nc3c(N[C@@H]4CCN(C)C[C@@H]4F)cccn3c2SC(F)(F)F)n1 [Example 162] | 80 to 90% | < 0.75 µM | ≤ 5.00 | > 6.12 | ≥ 10 °C | ≥ 10 °C | > 8.00 | – | > 6.12
CNC(=O)c1ccc(NCC#Cc2nc3c(N[C@@H]4CCN(C)C[C@@H]4F)cccn3c2SC(F)(F)F)cc1 [Example 163] | > 90% | < 0.75 µM | ≤ 5.00 | > 6.12 | ≥ 10 °C | ≥ 10 °C | > 8.00 | – | > 6.12
COc1ccc(C(N)=O)nc1NCC#Cc1nc2c(N[C@@H]3CCN(C)C[C@@H]3F)cccn2c1SC(F)(F)F [Example 166] | 80 to 90% | < 0.75 µM | ≤ 5.00 | > 6.12 | ≥ 10 °C | ≥ 10 °C | > 8.00 | – | > 6.12
CNC(=O)c1ccc(NCC#Cc2nc3c(N[C@H]4CCN(C)C(=O)C4)cccn3c2SC(F)(F)F)c(OC)c1 [Example 168] | > 90% | 0.75 to 1.5 µM | ≤ 5.00 | > 6.12 | ≥ 10 °C | 5 to 10 °C | > 8.00 | – | > 6.12
CNC(=O)c1ccc(NCC#Cc2nc3c(N[C@@H]4CCN(C)C(=O)C4)cccn3c2SC(F)(F)F)c(OC)c1 [Example 169] | 70 to 80% | > 3 µM | ≤ 5.00 | < 5.52 | 5 to 10 °C | 5 to 10 °C | 7.00 to 8.00 | – | < 5.52
CNC(=O)c1cc(NCC#Cc2nc3c(N[C@@H]4CCN(C)C[C@@H]4F)cccn3c2SC(F)(F)F)c(OC)cc1F [Example 170] | 80 to 90% | < 0.75 µM | ≤ 5.00 | > 6.12 | ≥ 10 °C | ≥ 10 °C | > 8.00 | – | > 6.12
CNC(=O)c1ccc(OC)c(NCC#Cc2nc3c(N[C@@H]4CN(C)C[C@@H]4F)cccn3c2SC(F)(F)F)n1 [Example 171] | 70 to 80% | < 0.75 µM | ≤ 5.00 | > 6.12 | ≥ 10 °C | ≥ 10 °C | > 8.00 | – | > 6.12
CNC(=O)c1ccc(NCC#Cc2nc3c(N[C@H]4CCNC(=O)C4)cccn3c2SC(F)(F)F)c(OC)c1 [Example 174] | 80 to 90% | 1.5 to 3 µM | ≤ 5.00 | 5.52 to 5.82 | ≥ 10 °C | ≥ 10 °C | > 8.00 | – | 5.82 to 6.12
CNC(=O)c1ccc(NCC#Cc2nc3c(N[C@@H]4CCNC(=O)C4)cccn3c2SC(F)(F)F)c(OC)c1 [Example 175] | < 70% | > 3 µM | ≤ 5.00 | < 5.52 | 5 to 10 °C | 5 to 10 °C | 7.00 to 8.00 | – | < 5.52

Second part, led by results:

Emax (p53 Y220C) | AC50 (p53 Y220C) | pIC50 (H1299 p53 R273H) | pIC50 (H1299 p53 Y220C) | ΔTm at 10 µM [1] | ΔTm at 100 µM [1] | pKd ([2]; SPR, kinetic KD, p53 Y220C) | pKd [2] | SMILES | pIC50 (NUGC3 p53 Y220C)
70 to 80% | < 0.75 µM | > 5.30 | > 6.12 | ≥ 10 °C | ≥ 10 °C | > 8.00 | – | CNC(=O)c1ccc(OC)c(NCC#Cc2nc3c(N[C@@H]4CCN(C)C[C@@H]4F)cc(F)cn3c2SC(F)(F)F)c1 [Example 154, 3-{[3-(6-fluoro-8-{[(3S,4R)-3-fluoro-1-methylpiperidin-4-yl]amino}-3-[(trifluoromethyl)sulfanyl]imidazo[1,2-a]pyridin-2-yl)prop-2-yn-1-yl]amino}-4-methoxy-N-methylbenzamide] | > 6.12
> 90% | < 0.75 µM | 5.00 to 5.10 | > 6.12 | ≥ 10 °C | ≥ 10 °C | – | > 8.00 | CNC(=O)c1ccc(NCC#Cc2cc3c(N[C@@H]4CCN(C)C[C@@H]4F)nccn3c2SC(F)(F)F)c(OC)c1 [Example 155, 4-{[3-(1-{[(3S,4R)-3-fluoro-1-methylpiperidin-4-yl]amino}-6-[(trifluoromethyl)sulfanyl]pyrrolo[1,2-a]pyrazin-7-yl)prop-2-yn-1-yl]amino}-3-methoxy-N-methylbenzamide; formic acid] | > 6.12
> 90% | < 0.75 µM | 5.00 to 5.10 | > 6.12 | ≥ 10 °C | ≥ 10 °C | > 8.00 | – | CNC(=O)c1ccc(OC)c(NCC#Cc2cc3c(N[C@@H]4CCN(C)C[C@@H]4F)nccn3c2SC(F)(F)F)c1 [Example 156, 3-{[3-(1-{[(3S,4R)-3-fluoro-1-methylpiperidin-4-yl]amino}-6-[(trifluoromethyl)sulfanyl]pyrrolo[1,2-a]pyrazin-7-yl)prop-2-yn-1-yl]amino}-4-methoxy-N-methylbenzamide] | > 6.12
80 to 90% | < 0.75 µM | 5.10 to 5.30 | > 6.12 | ≥ 10 °C | ≥ 10 °C | – | > 8.00 | CNC(=O)c1ccc(OC)c(NCC#Cc2nc3c(N[C@@H]4CCN(C)C[C@@H]4F)cccn3c2SC(F)(F)F)n1 [Example 158] | > 6.12
> 90% | < 0.75 µM | ≤ 5.00 | > 6.12 | ≥ 10 °C | – | > 8.00 | – | CNC(=O)c1ccc(F)c(NCC#Cc2nc3c(N[C@@H]4CCN(C)C[C@@H]4F)cccn3c2SC(F)(F)F)c1 [Example 159] | > 6.12
> 90% | < 0.75 µM | ≤ 5.00 | > 6.12 | ≥ 10 °C | ≥ 10 °C | > 8.00 | – | CNC(=O)c1ccc(C)c(NCC#Cc2nc3c(N[C@@H]4CCN(C)C[C@@H]4F)cccn3c2SC(F)(F)F)c1 [Example 160] | > 6.12
> 90% | < 0.75 µM | 5.00 to 5.10 | > 6.12 | ≥ 10 °C | ≥ 10 °C | > 8.00 | – | COc1cc(C(N)=O)ccc1NCC#Cc1nc2c(N[C@@H]3CCN(C)C[C@@H]3F)cccn2c1SC(F)(F)F [Example 165] | > 6.12
80 to 90% | < 0.75 µM | > 5.30 | > 6.12 | ≥ 10 °C | ≥ 10 °C | > 8.00 | – | CNC(=O)c1ccc(OC)c(NCC#Cc2nc3c(N[C@@H]4CCN(C)C[C@@H]4F)cccn3c2SC(F)F)c1 [Example 167] | > 6.12
70 to 80% | < 0.75 µM | 5.10 to 5.30 | > 6.12 | ≥ 10 °C | ≥ 10 °C | > 8.00 | – | CNC(=O)c1ccc(OC)c(NCC#Cc2nc3c(N[C@@H]4CNC[C@@H]4F)cccn3c2SC(F)(F)F)n1 [Example 172] | > 6.12
70 to 80% | 0.75 to 1.5 µM | 5.10 to 5.30 | 5.82 to 6.12 | 5 to 10 °C | 5 to 10 °C | 7.00 to 8.00 | – | CNC(=O)c1ccc(NCC#Cc2nc3c(NC4CC5(C4)CN(CC(F)F)C5)cccn3c2SC(F)(F)F)c(OC)c1 [Example 173] | 5.52 to 5.82
70 to 80% | 0.75 to 1.5 µM | 5.10 to 5.30 | 5.82 to 6.12 | 5 to 10 °C | ≥ 10 °C | 7.00 to 8.00 | – | CNC(=O)c1ccc(NCC#Cc2nc3c(N[C@@H]4CCn5cncc5C4)cccn3c2SC(F)(F)F)c(OC)c1 [Example 176] | 5.52 to 5.82
80 to 90% | < 0.75 µM | 5.10 to 5.30 | > 6.12 | ≥ 10 °C | ≥ 10 °C | > 8.00 | – | CNC(=O)c1ccc(NCC#Cc2nc3c(N[C@H]4CCn5cncc5C4)cccn3c2SC(F)(F)F)c(OC)c1 [Example 177] | 5.82 to 6.12
